The values below come from US20240228506A1, “RIPK1 INHIBITORS AND METHODS OF USE” (Merck Sharp & Dohme LLC, priority 2021, published 2024).

pIC50: −log10 of the molar value.

In this assay the target is T1, GST-RIPK1 (recombinant GST-RIPK1 kinase domain (residues 1-327)) (Homo sapiens, UniProt Q13546).
T1 construct: recombinant GST-RIPK1 kinase domain (residues 1-327) enzyme; made in house; host or cells: baculovirus-transfected Sf21 insect cells
T1 sequence (Q13546 1-327): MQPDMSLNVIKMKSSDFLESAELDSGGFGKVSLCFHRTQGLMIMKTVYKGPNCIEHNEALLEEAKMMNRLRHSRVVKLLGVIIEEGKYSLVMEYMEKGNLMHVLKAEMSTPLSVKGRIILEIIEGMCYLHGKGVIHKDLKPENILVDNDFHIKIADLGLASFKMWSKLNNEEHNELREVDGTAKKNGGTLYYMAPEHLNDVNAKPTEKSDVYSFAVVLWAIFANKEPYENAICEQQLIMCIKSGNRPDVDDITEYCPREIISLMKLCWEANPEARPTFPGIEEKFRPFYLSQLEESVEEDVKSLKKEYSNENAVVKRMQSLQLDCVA
Put plainly: RIPK1-ADP-Glo enzymatic assay. Format: biochemical. The conditions noted are these: 25 nM GST-RIPK1, 300 μM ATP, 3 μM dephosphorylated-MBP; 30 minutes pre-incubation, 150 minutes reaction; ten-point titration. In a few lines:
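Ten-point 1:3 titrations from 100000 nM, 1% DMSO, were preincubated 30 min with 25 nM GST-RIPK1 (1-327) before starting with 300 μM ATP plus 3 μM dephosphorylated MBP; 150 min reaction. ADP-Glo luminescence measured ATP-to-ADP conversion; EC50 by four-parameter sigmoidal regression.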
A word on the pIC50: it is the IC50 on a negative log10 scale, so that one unit is a factor of ten. `N#CCc1cccc(C#Cc2cncc3c2O[C@H]2C[C@@H]3N(C(=O)C34CCC(F)(CC3)C4)C2)c1` [Compound 2-99, 2-(3-(((2S,5S)-4-(4-fluorobicyclo[2.2.1]heptane-1-carbonyl)-2,3,4,5-tetrahydro-2,5-methanopyrido[3,4-f][1,4]oxazepin-9-yl)ethynyl)phenyl) acetonitrile]: the pIC50 was 8.00.
For the molecule `N#Cc1cccc(C#Cc2cncc3c2O[C@H]2C[C@@H]3N(C(=O)C34CCC(F)(CC3)C4)C2)c1` [Compound 2-100, 3-(((2S,5S)-4-(4-fluorobicyclo[2.2.1]heptane-1-carbonyl)-2,3,4,5-tetrahydro-2,5-methanopyrido[3,4-f][1,4]oxazepin-9-yl)ethynyl)benzonitrile], the pIC50 was 7.92.
For `O=C(N1C[C@@H]2C[C@H]1c1cncc(C#Cc3cccnc3)c1O2)C12CCC(F)(CC1)C2` [Compound 2-101, (4-fluorobicyclo[2.2.1]heptan-1-yl)((2S,5S)-9-(pyridin-3-ylethynyl)-2,3-dihydro-2,5-methanopyrido[3,4-f][1,4]oxazepin-4(5H)-yl)methanone] the value was 7.92; for `O=C(N1C[C@@H]2C[C@H]1c1cncc(C#Cc3cncnc3)c1O2)C12CCC(F)(CC1)C2` [Compound 2-102, (4-fluorobicyclo[2.2.1]heptan-1-yl)((2S,5S)-9-(pyrimidin-5-ylethynyl)-2,3-dihydro-2,5-methanopyrido[3,4-f][1,4]oxazepin-4(5H)-yl)methanone], 7.89; for `Cc1ccc(C#Cc2cncc3c2O[C@H]2C[C@@H]3N(C(=O)C34CCC(F)(CC3)C4)C2)cc1` [Compound 2-103, (4-fluorobicyclo[2.2.1]heptan-1-yl)((2S,5S)-9-(p-tolylethynyl)-2,3-dihydro-2,5-methanopyrido[3,4-f][1,4]oxazepin-4(5H)-yl)methanone], 7.68.
For `Cc1cccc(C#Cc2cncc3c2O[C@H]2C[C@@H]3N(C(=O)C34CCC(F)(CC3)C4)C2)c1` [Compound 2-104, (4-fluorobicyclo[2.2.1]heptan-1-yl)((2S,5S)-9-(m-tolylethynyl)-2,3-dihydro-2,5-methanopyrido[3,4-f][1,4]oxazepin-4(5H)-yl)methanone] the value was 7.64.
As to `N#CCc1ccc(C#Cc2cncc3c2O[C@H]2C[C@@H]3N(C(=O)C34CCC(F)(CC3)C4)C2)cc1` [Compound 2-105], the pIC50 was 7.74.
For the molecule `CC(C)C#Cc1cncc2c1O[C@H]1C[C@@H]2N(C(=O)C(C)(C)C(F)F)C1` [Compound 2-106, 3,3-Difluoro-2,2-dimethyl-1-((2S,5S)-9-(3-methylbut-1-yn-1-yl)-2,3-dihydro-2,5-methanopyrido[3,4-f][1,4]oxazepin-4(5H)-yl)propan-1-one], the pIC50 was 6.71.
For the molecule `CC(C)(C(=O)N1C[C@@H]2C[C@H]1c1cncc(C#CCC3CCOCC3)c1O2)C(F)F` [Compound 2-107, 3,3-difluoro-2,2-dimethyl-1-((2S,5S)-9-(3-(tetrahydro-2H-pyran-4-yl)prop-1-yn-1-yl)-2,3-dihydro-2,5-methanopyrido[3,4-f][1,4]oxazepin-4(5H)-yl)propan-1-one], the pIC50 is 6.82.
For `CC(C)(C)CCC#Cc1cncc2c1O[C@H]1C[C@@H]2N(C(=O)C(C)(C)C(F)F)C1` [Compound 2-108, 1-((2S,5S)-9-(5,5-dimethylhex-1-yn-1-yl)-2,3-dihydro-2,5-methanopyrido[3,4-f][1,4]oxazepin-4(5H)-yl)-3,3-difluoro-2,2-dimethylpropan-1-one], the pIC50 is 6.79.
With `CC(C)(C(=O)N1C[C@@H]2C[C@H]1c1cncc(C#CCC3CCCCC3)c1O2)C(F)F` [Compound 2-109, 1-((2S,5S)-9-(3-cyclohexylprop-1-yn-1-yl)-2,3-dihydro-2,5-methanopyrido[3,4-f][1,4]oxazepin-4(5H)-yl)-3,3-difluoro-2,2-dimethylpropan-1-one], the pIC50 is 6.74.
Regarding `CC(C)(C(=O)N1C[C@@H]2C[C@H]1c1cncc(C#CCCc3ccccc3)c1O2)C(F)F` [Compound 2-110, 3,3-difluoro-2,2-dimethyl-1-((2S,5S)-9-(4-phenylbut-1-yn-1-yl)-2,3-dihydro-2,5-methanopyrido[3,4-f][1,4]oxazepin-4(5H)-yl)propan-1-one], the negative-log IC50 (pIC50) is 6.71.
`CC(C)(C(=O)N1C[C@@H]2C[C@H]1c1cncc(C#CCCC(F)(F)F)c1O2)C(F)F` [Compound 2-111, 3,3-difluoro-2,2-dimethyl-1-((2S,5S)-9-(5,5,5-trifluoropent-1-yn-1-yl)-2,3-dihydro-2,5-methanopyrido[3,4-f][1,4]oxazepin-4(5H)-yl)propan-1-one]: the pIC50 was 6.58.
For `CC[C@H](C)CC#Cc1cncc2c1O[C@H]1C[C@@H]2N(C(=O)C(C)(C)C(F)F)C1` [Compound 2-112, 3,3-difluoro-2,2-dimethyl-1-((2S,5S)-9-((S)-4-methylhex-1-yn-1-yl)-2,3-dihydro-2,5-methanopyrido[3,4-f][1,4]oxazepin-4(5H)-yl)propan-1-one] the value was 7.08; for `CC(C)(C(=O)N1C[C@@H]2C[C@H]1c1cncc(C#CCF)c1O2)C(F)F` [Compound 2-113, 3,3-difluoro-1-((2S,5S)-9-(3-fluoroprop-1-yn-1-yl)-2,3-dihydro-2,5-methanopyrido[3,4-f][1,4]oxazepin-4(5H)-yl)-2,2-dimethylpropan-1-one], 6.94.
On to `CC(C)(C(=O)N1C[C@@H]2C[C@H]1c1cncc(C#CC34CC(C(F)(F)F)(C3)C4)c1O2)C(F)F` [Compound 2-114, 3,3-difluoro-2,2-dimethyl-1-((2S,5S)-9-((3-(trifluoromethyl)bicyclo [1.1.1]pentan-1-yl)ethynyl)-2,3-dihydro-2,5-methanopyrido[3,4-f][1,4]oxazepin-4(5H)-yl)propan-1-one], for which the pIC50 is 5.82.
Consider `O=C(N1C[C@@H]2C[C@H]1c1cncc(C#CC3CC3)c1O2)C12CCC(F)(CC1)C2` [Compound 2-115, ((2S,5S)-9-(Cyclopropylethynyl)-2,3-dihydro-2,5-methanopyrido[3,4-f][1,4]oxazepin-4(5H)-yl)(4-fluorobicyclo[2.2.1]heptan-1-yl)methanone], for which the pIC50 was 7.49.
`CC1(CC#Cc2cncc3c2O[C@H]2C[C@@H]3N(C(=O)C34CCC(F)(CC3)C4)C2)COC1` [Compound 2-116, (4-fluorobicyclo[2.2.1]heptan-1-yl)((2S,5S)-9-(3-(3-methyloxetan-3-yl)prop-1-yn-1-yl)-2,3-dihydro-2,5-methanopyrido[3,4-f][1,4]oxazepin-4(5H)-yl)methanone]: the pIC50 was 6.42.
In the case of `CCC#Cc1cncc2c1O[C@H]1C[C@@H]2N(C(=O)C23CCC(F)(CC2)C3)C1` [Compound 2-117], the pIC50 was 7.37.
For `O=C(N1C[C@@H]2C[C@H]1c1cncc(C#CCC3CCOC3)c1O2)C12CCC(F)(CC1)C2` (stereo partly drawn) [Compound 2-118, (4-fluorobicyclo[2.2.1]heptan-1-yl)((2S,5S)-9-(3-(tetrahydrofuran-3-yl)prop-1-yn-1-yl)-2,3-dihydro-2,5-methanopyrido[3,4-f][1,4]oxazepin-4(5H)-yl)methanone] the value was 7.19; for `O=C(N1C[C@@H]2C[C@H]1c1cncc(C#CC3COC3)c1O2)C12CCC(F)(CC1)C2` [Compound 2-119, (4-fluorobicyclo[2.2.1]heptan-1-yl)((2S,5S)-9-(oxetan-3-ylethynyl)-2,3-dihydro-2,5-methanopyrido[3,4-f][1,4]oxazepin-4(5H)-yl)methanone], 7.24.
For `O=C(N1C[C@@H]2C[C@H]1c1cncc(C#CCC3(F)COC3)c1O2)C12CCC(F)(CC1)C2` [Compound 2-120, (4-fluorobicyclo[2.2.1]heptan-1-yl)((2S,5S)-9-(3-(3-fluorooxetan-3-yl)prop-1-yn-1-yl)-2,3-dihydro-2,5-methanopyrido[3,4-f][1,4]oxazepin-4(5H)-yl)methanone] the value was 7.02; for `CC1(C(=O)N2C[C@@H]3C[C@H]2c2cncc(C#Cc4ccc(F)cc4)c2O3)CCCC1` [Compound 2-121, ((2S,5S)-9-((4-Fluorophenyl)ethynyl)-2,3-dihydro-2,5-methanopyrido[3,4-f][1,4]oxazepin-4(5H)-yl)(1-methylcyclopentyl)methanone], 7.47; for `O=C(N1C[C@@H]2C[C@H]1c1cncc(C#Cc3ccc(F)cc3)c1O2)C12CCC(F)(CC1)C2` [Compound 2-122, (4-fluorobicyclo[2.2.1]heptan-1-yl)((2S,5S)-9-((4-fluorophenyl)ethynyl)-2,3-dihydro-2,5-methanopyrido[3,4-f][1,4]oxazepin-4(5H)-yl)methanone], 7.62.
`CC(F)(F)C(C)(C)C(=O)N1C[C@@H]2C[C@H]1c1cncc(C#Cc3ccc(F)cc3)c1O2` [Compound 2-123, 3,3-difluoro-1-((25,5S)-9-((4-fluorophenyl)ethynyl)-2,3-dihydro-2,5-methanopyrido[3,4-f][1,4]oxazepin-4(5H)-yl)-2,2-dimethylbutan-1-one]: the negative-log IC50 (pIC50) is 7.47.
As for `CC(C)(C(=O)N1C[C@@H]2C[C@H]1c1cc(F)cnc1O2)C(F)F` [Compound 3-1, 3,3-Difluoro-1-((2S,5S)-7-fluoro-2,3-dihydro-2,5-methanopyrido[3,2-f][1,4]oxazepin-4(5H)-yl)-2,2-dimethylpropan-1-one], the pIC50 was 6.50.
